Publication doi:10.1101/2025.01.06.631558v1 (biorxiv, 2025)

Columns and labels:
[1] = molecular target: T1, CbPrpB (Coxiella burnetii, UniProt Q83DG5)
T1 construct: gene prpB

[2] = molecular target: T1, CbPrpB; experiment: biochemical

T1 sequence (Q83DG5 1-290): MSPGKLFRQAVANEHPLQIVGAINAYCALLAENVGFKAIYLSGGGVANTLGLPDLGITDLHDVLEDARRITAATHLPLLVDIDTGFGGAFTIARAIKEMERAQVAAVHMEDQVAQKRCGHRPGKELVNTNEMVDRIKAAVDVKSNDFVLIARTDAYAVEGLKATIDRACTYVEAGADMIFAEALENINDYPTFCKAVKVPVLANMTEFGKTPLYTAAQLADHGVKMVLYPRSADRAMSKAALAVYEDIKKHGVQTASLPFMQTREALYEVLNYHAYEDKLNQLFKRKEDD

Row | Compound | X-ray crystal structure, soak [1] | Ki [2] [mM]
1 | CC(=O)C(=O)O [pyruvate] | We first determined the structure of product-bound CbPrpB | 
2 | O=C(O)C[C@H](C(=O)O)[C@@H](O)C(=O)O [isocitrate] |  | 6 ± 2
3 | O=C(O)CCC(=O)O [succinate] | We first determined the structure of product-bound CbPrpB | 
